# Assay results reported in EPA's ToxRefDB 2.
# Columns and labels:
# rabbit [1] = conditions: Prenatal developmental toxicity study, new zealand white, Oral, Gavage/Intubation, dose end: 19 GD
# rat [2] = conditions: Multigenerational reproductive toxicity study, other, Oral, Feed, dose end: 2 generation
# dog [3] = conditions: Chronic toxicity, beagle, Oral, Feed, dose end: 12 month, group: systemic
# rat [4] = conditions: Prenatal developmental toxicity study, other, Oral, Feed, dose end: 15 GD
# rat [5] = conditions: Combined chronic toxicity/carcinogenicity; sprague dawley; Oral; Feed; dose end: 2 year; group: systemic; systemic / in life observation / body weight / body weight + systemic / in life observation / body weight / body weight gain + systemic / …
# rat [6] = conditions: Multigenerational reproductive toxicity study, sprague dawley, Oral, Feed, dose end: 3 generation
# mouse [7] = conditions: Carcinogenicity; cd1; Oral; Feed; dose end: 24 month; group: systemic; systemic / hematology / methemoglobin / methemoglobin + systemic / in life observation / body weight / body weight + systemic / in life …
# rat [8] = conditions: Prenatal developmental toxicity study, wistar, Oral, Gavage/Intubation, dose end: 15 GD
# rat [9] = conditions: Combined chronic toxicity/carcinogenicity, sprague dawley, Oral, Feed, dose end: 2 year, group: systemic
# mouse [10] = conditions: Combined chronic toxicity/carcinogenicity, cd1, Oral, Feed, dose end: 2 year, group: systemic
# rat [11] = conditions: Subchronic oral toxicity in rodents, wistar, [Not Specified], dose end: 90 day, group: systemic
# rabbit [12] = conditions: Prenatal developmental toxicity study, new zealand white, Oral, Gavage/Intubation, dose end: 19 GD; remark: listed apart in the source
# rat [13] = conditions: Multigenerational reproductive toxicity study, wistar, Oral, Feed, dose end: 2 generation
# dog [14] = conditions: Chronic toxicity; beagle; Oral; Capsule; dose end: 52 week; group: systemic; systemic / clinical chemistry / alkaline phosphatase (alp/alk) / alkaline phosphatase (alp/alk) + systemic / clinical chemistry / …
# [15] = group: developmental, developmental / developmental malformation / bone / [other] + developmental / developmental malformation / bone / hole(s) + developmental / …
# [16] = group: maternal, systemic / in life observation / body weight / body weight gain
# [17] = group: maternal, systemic / in life observation / body weight / body weight gain + reproductive / reproductive performance / aborted / aborted + systemic / …
# [18] = group: offspring, systemic / in life observation / body weight / offspring (pup) weight + developmental / developmental malformation / diaphragm / hernia + …
# [19] = group: parental, systemic / in life observation / body weight / body weight gain + systemic / in life observation / body weight / body weight + systemic / in…
# [20] = group: reproductive, reproductive / offspring survival early / birth index / live birth index
# [21] = systemic / hematology / methemoglobin / methemoglobin + systemic / hematology / sulphemoglobin / sulphemoglobin
# [22] = systemic / hematology / methemoglobin / methemoglobin + systemic / hematology / sulphemoglobin / sulphemoglobin + systemic / clinical …
# [23] = group: developmental, developmental / developmental malformation / bone / bipartite ossification + developmental / developmental malformation / bone / delayed …
# [24] = group: maternal, systemic / in life observation / body weight / body weight + systemic / in life observation / food consumption / food consumption + …
# [25] = group: offspring, developmental / offspring survival late / viability index / viability index + systemic / in life observation / body weight / offspring (pup…
# [26] = group: parental, systemic / in life observation / body weight / body weight + systemic / in life observation / body weight / body weight gain
# [27] = group: reproductive, reproductive / reproductive performance / fertility / fertility
# [28] = group: developmental, developmental / developmental malformation / mouth / jaw / cleft palate
# [29] = group: maternal, systemic / in life observation / body weight / body weight gain + systemic / in life observation / clinical signs / urogenital staining + …
# [30] = systemic / pathology microscopic / liver / hypertrophy
# [31] = systemic / clinical chemistry / aminopyrine-n-demethylase / aminopyrine-n-demethylase + systemic / organ weight / liver / absolute + …
# [32] = systemic / urinalysis / volume / volume
# [33] = group: developmental, developmental / developmental malformation / bone / short supernumerary + developmental / developmental malformation / bone / full …
# [34] = group: maternal, systemic / in life observation / body weight / body weight + systemic / in life observation / body weight / body weight gain + systemic / in…
# [35] = group: offspring, systemic / in life observation / clinical signs / red or crusty deposits around eyes, ears, nose, or mouth + systemic / pathology gross / …
# [36] = group: parental, systemic / in life observation / body weight / body weight gain + systemic / in life observation / food consumption / food consumption + …
smiles,measurement,setting,value
CON(C)C(=O)Nc1ccc(Cl)c(Cl)c1 [Linuron],LEL,rabbit [1]; [15],100 mg/kg/day
same,LOAEL,rabbit [1]; [15],100 mg/kg/day
same,NEL,rabbit [1]; [15],25 mg/kg/day
same,NOAEL,rabbit [1]; [15],25 mg/kg/day
same,LEL,rabbit [1]; [16],25 mg/kg/day
same,LOAEL,rabbit [1]; [16],25 mg/kg/day
same,NEL,rabbit [1]; [17],5 mg/kg/day
same,NOAEL,rabbit [1]; [17],5 mg/kg/day
same,LEL,"rat [2]; group: offspring, systemic / in life observation / body weight / offspring (pup) weight",7.77 mg/kg/day
same,LOAEL,rat [2]; [18],> 54 mg/kg/day
same,NEL,rat [2]; [18],0.948 mg/kg/day
same,NOAEL,rat [2]; [18],≥ 54 mg/kg/day
same,LOAEL,"rat [2]; group: parental, systemic / in life observation / body weight / body weight gain",5.83 mg/kg/day
same,NEL,rat [2]; [19],0.736 mg/kg/day
same,NOAEL,rat [2]; [19],0.736 mg/kg/day
same,LEL,"rat [2]; group: parental, systemic / in life observation / body weight / body weight gain + systemic / in life observation / food consumption / food consumption",5.83 mg/kg/day
same,LEL,rat [2]; [20],54 mg/kg/day
same,LOAEL,rat [2]; [20],> 54 mg/kg/day
same,NEL,rat [2]; [20],7.77 mg/kg/day
same,NOAEL,rat [2]; [20],≥ 54 mg/kg/day
same,LEL,dog [3]; [21],3.49 mg/kg/day
same,LOAEL,dog [3]; [21],3.49 mg/kg/day
same,NEL,dog [3]; [22],0.77 mg/kg/day
same,NOAEL,dog [3]; [22],0.77 mg/kg/day
same,LEL,rat [4]; [23],50 mg/kg/day
same,LOAEL,rat [4]; [23],50 mg/kg/day
same,NEL,rat [4]; [23],12 mg/kg/day
same,NOAEL,rat [4]; [23],12 mg/kg/day
same,LOAEL,"rat [4]; group: maternal, systemic / in life observation / body weight / body weight + systemic / in life observation / food consumption / food consumption",50 mg/kg/day
same,LEL,rat [4]; [24],50 mg/kg/day
same,NEL,rat [4]; [24],12 mg/kg/day
same,NOAEL,rat [4]; [24],12 mg/kg/day
same,LEL,rat [5],5.11 mg/kg/day
same,LOAEL,rat [5],5.11 mg/kg/day
same,NEL,rat [5],2.09 mg/kg/day
same,NOAEL,rat [5],2.09 mg/kg/day
same,LEL,rat [6]; [25],44 mg/kg/day
same,LOAEL,rat [6]; [25],44 mg/kg/day
same,NEL,rat [6]; [25],9 mg/kg/day
same,NOAEL,rat [6]; [25],9 mg/kg/day
same,LEL,"rat [6]; group: parental, systemic / in life observation / body weight / body weight",9 mg/kg/day
same,LOAEL,"rat [6]; group: parental, systemic / in life observation / body weight / body weight + systemic / hematology / erythrocyte (rbc) count differential / erythrocyte (rbc…",10 mg/kg/day
same,NEL,rat [6]; [26],2 mg/kg/day
same,NOAEL,rat [6]; [26],2 mg/kg/day
same,LEL,rat [6]; [27],44 mg/kg/day
same,LOAEL,rat [6]; [27],44 mg/kg/day
same,NEL,rat [6]; [27],9 mg/kg/day
same,NOAEL,rat [6]; [27],9 mg/kg/day
same,LEL,mouse [7],261 mg/kg/day
same,LOAEL,mouse [7],261 mg/kg/day
same,NEL,mouse [7],23 mg/kg/day
same,NOAEL,mouse [7],23 mg/kg/day
CC(C)(C)[C@H](O)[C@H](Cc1ccc(Cl)cc1)n1cncn1 [Paclobutrazol],LOAEL,"rat [8]; group: developmental, developmental / developmental malformation / bone / incomplete ossification + developmental / developmental malformation / bone / unossified",100 mg/kg/day
same,NOAEL,"rat [8]; group: developmental, developmental / developmental malformation / bone / incomplete ossification + developmental / developmental malformation / bone / unossified…",40 mg/kg/day
same,LEL,rat [8]; [28],40 mg/kg/day
same,NEL,rat [8]; [28],< 40 mg/kg/day
same,LEL,rat [8]; [16],100 mg/kg/day
same,LOAEL,rat [8]; [16],100 mg/kg/day
same,NEL,rat [8]; [29],40 mg/kg/day
same,NOAEL,rat [8]; [29],40 mg/kg/day
same,LEL,rat [9]; systemic / clinical chemistry / triglycerides / triglycerides,12.5 mg/kg/day
same,LOAEL,rat [9]; [30],62.5 mg/kg/day
same,NOAEL,rat [9]; [30],12.5 mg/kg/day
same,NEL,rat [9]; systemic / pathology microscopic / liver / hypertrophy + systemic / clinical chemistry / triglycerides / triglycerides + systemic / …,2.5 mg/kg/day
same,LEL,mouse [10]; systemic / organ weight / kidney / relative to body weight,18.8 mg/kg/day
same,NEL,mouse [10]; systemic / organ weight / kidney / relative to body weight + systemic / organ weight / kidney / absolute + systemic / organ weight / liver…,3.75 mg/kg/day
same,LOAEL,mouse [10]; systemic / pathology microscopic / liver / steatosis,112 mg/kg/day
same,NOAEL,mouse [10]; systemic / pathology microscopic / liver / steatosis + systemic / organ weight / liver / absolute + systemic / organ weight / liver / …,18.8 mg/kg/day
same,LOAEL,rat [11]; [31],62.5 mg/kg/day
same,NOAEL,rat [11]; [31],12.5 mg/kg/day
same,LEL,rat [11]; [32],2.5 mg/kg/day
same,NEL,rat [11]; [32],< 2.5 mg/kg/day
same,LEL,rabbit [12]; [33],125 mg/kg/day
same,LOAEL,rabbit [12]; [33],125 mg/kg/day
same,NEL,rabbit [12]; [33],75 mg/kg/day
same,NOAEL,rabbit [12]; [33],75 mg/kg/day
same,LEL,rabbit [12]; [34],125 mg/kg/day
same,LOAEL,rabbit [12]; [34],125 mg/kg/day
same,NEL,rabbit [12]; [34],75 mg/kg/day
same,NOAEL,rabbit [12]; [34],75 mg/kg/day
same,LEL,rat [13]; [35],12.5 mg/kg/day
same,LOAEL,rat [13]; [35],12.5 mg/kg/day
same,NEL,rat [13]; [35],2.5 mg/kg/day
same,NOAEL,rat [13]; [35],2.5 mg/kg/day
same,NEL,"rat [13]; group: parental, systemic / in life observation / body weight / body weight + systemic / in life observation / body weight / body weight gain + systemic / in…",2.5 mg/kg/day
same,LOAEL,rat [13]; [36],> 62.5 mg/kg/day
same,NOAEL,rat [13]; [36],≥ 62.5 mg/kg/day
same,LEL,"rat [13]; group: parental, systemic / in life observation / clinical signs / red or crusty deposits around eyes, ears, nose, or mouth + systemic / pathology gross / …",12.5 mg/kg/day
same,LEL,dog [14],75 mg/kg/day
same,LOAEL,dog [14],75 mg/kg/day
same,NEL,dog [14],15 mg/kg/day
same,NOAEL,dog [14],15 mg/kg/day
